From ChEMBL document CHEMBL5113374, “Research progress in biological activities of isochroman derivatives” (Eur J Med Chem, 2021)
In brackets after ≈: the same amount, converted by molar mass.

Experiments:
Lasiodiplodia theobromae = test: Antifungal activity against Lasiodiplodia theobromae assessed as fungal growth inhibition at 100 ug/ml incubated for 4 days by disk method; type: functional; conditions: 96 h, time 4 day
Rattus norvegicus [1] = test: Antisecretory activity in Sprague-Dawley rat assessed as inhibition of gastric acid accumulation at 20 mg/kg,ID; type: functional
Acetylcholinesterase [2] = target: T1, Acetylcholinesterase (Homo sapiens, UniProt P22303); test: Inhibition of AChE in human erythrocytes using acetylthiocholine iodide as substrate at 50 uM incubated for 20 mins by DTNB reagent based Ellman's method; type: cell-based; conditions: Erythrocyte
T1 sequence (P22303 whole entry): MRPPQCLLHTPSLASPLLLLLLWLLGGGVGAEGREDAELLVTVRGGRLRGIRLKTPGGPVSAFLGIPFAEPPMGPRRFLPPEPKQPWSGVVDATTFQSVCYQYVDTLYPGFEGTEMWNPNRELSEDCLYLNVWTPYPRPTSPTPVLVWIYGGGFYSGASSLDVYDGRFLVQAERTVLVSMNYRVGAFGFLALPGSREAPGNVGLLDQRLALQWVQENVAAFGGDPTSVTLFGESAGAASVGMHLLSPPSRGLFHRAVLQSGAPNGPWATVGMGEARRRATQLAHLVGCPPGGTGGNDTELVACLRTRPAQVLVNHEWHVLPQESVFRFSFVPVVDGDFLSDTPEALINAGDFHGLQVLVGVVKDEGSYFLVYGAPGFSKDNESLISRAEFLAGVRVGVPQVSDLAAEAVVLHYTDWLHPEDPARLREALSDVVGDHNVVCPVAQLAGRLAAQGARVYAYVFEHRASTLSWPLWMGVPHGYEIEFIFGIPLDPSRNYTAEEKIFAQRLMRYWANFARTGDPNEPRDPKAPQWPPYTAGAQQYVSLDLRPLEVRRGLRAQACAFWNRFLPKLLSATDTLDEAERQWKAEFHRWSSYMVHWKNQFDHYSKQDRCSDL

KB = test: Antiproliferative activity against human KB cells assessed as cell growth inhibition incubated for 48 hrs by coulter counter method; type: functional; conditions: read-out: ID50 (the source's name)
HL-60 = test: Cytotoxicity against human HL-60 cells; type: functional, cell-based
NCI-H460 = test: Antiproliferative activity against human NCI-H460 assessed as cell growth inhibition at 100 uM by SRB assay based spectrophotometric analysis; type: functional
[3] = Displacement of [3H]SCH-23390 from porcine striatum dopamine D2 receptor incubated for 30 mins by radioligand competition binding assay based scintillation counter analysis; type: tissue-based, Sus scrofa
D(1A) dopamine receptor = D(1A) dopamine receptor (Sus scrofa, UniProt P50130); test: Displacement of [3H]SCH-23390 from porcine striatum dopamine D1 receptor incubated for 30 mins by radioligand competition binding assay based scintillation counter analysis; type: tissue-based
Chain of D(1A) dopamine receptor (P50130 whole entry): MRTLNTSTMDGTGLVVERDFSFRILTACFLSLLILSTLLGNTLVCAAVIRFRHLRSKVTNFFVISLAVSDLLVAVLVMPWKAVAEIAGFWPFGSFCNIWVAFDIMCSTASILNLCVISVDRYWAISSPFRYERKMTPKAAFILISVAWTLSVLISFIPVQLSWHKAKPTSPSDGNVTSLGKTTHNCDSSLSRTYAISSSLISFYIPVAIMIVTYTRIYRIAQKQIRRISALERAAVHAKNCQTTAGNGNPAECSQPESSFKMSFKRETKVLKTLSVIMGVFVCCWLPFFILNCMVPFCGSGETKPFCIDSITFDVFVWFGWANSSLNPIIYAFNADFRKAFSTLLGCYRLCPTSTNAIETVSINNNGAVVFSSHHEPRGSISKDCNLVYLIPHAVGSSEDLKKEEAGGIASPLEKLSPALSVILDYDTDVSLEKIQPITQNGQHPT

L5178Y = test: Cytotoxicity against […] assessed as inhibition of cell viability at 10 ug/ml; type: functional; conditions: Mus musculus
Pseudomonas aeruginosa = test: Antibacterial activity against Pseudomonas aeruginosa ATTC-27853 assessed as bacterial growth inhibition incubated for 24 hrs by disk diffusion assay; type: functional
[4] = test system: Trichophyton mentagrophytes; test: Antifungal activity against Trichophyton mentagrophytes assessed as fungal growth inhibition incubated for 1 hrs by disk diffusion assay; type: functional
Aspergillus flavus = test: Antifungal activity against Aspergillus flavus assessed as fungal growth inhibition incubated for 1 hrs by disk diffusion assay; type: functional
Aspergillus fumigatus = test: Antifungal activity against Aspergillus fumigatus assessed as fungal growth inhibition incubated for 1 hrs by disk diffusion assay; type: functional
Escherichia coli = test: Antibacterial activity against Escherichia coli ATTC-25922 assessed as bacterial growth inhibition incubated for 24 hrs by disk diffusion assay; type: functional
Klebsiella pneumoniae = test: Antibacterial activity against Klebsiella pneumoniae assessed as bacterial growth inhibition incubated for 24 hrs by disk diffusion assay; type: functional
Staphylococcus aureus = test: Antibacterial activity against Staphylococcus aureus ATTC-25923 assessed as bacterial growth inhibition incubated for 24 hrs by disk diffusion assay; type: functional
Talaromyces marneffei = test: Antifungal activity against Penicillium marneffei assessed as fungal growth inhibition incubated for 1 hrs by disk diffusion assay; type: functional
Oocyte [5] = test: Antagonist activity at human dopamine D4 receptor polymorphic variant 7 expressed in Xenopus laevis oocytes at 1 uM incubated for 2 mins; type: cell-based
Oocyte [6] = test: Antagonist activity at human dopamine D4 receptor polymorphic variant 2 expressed in Xenopus laevis oocytes at 1 uM incubated for 2 mins; type: cell-based; conditions: filed as antagonist
Oocyte [7] = test: Antagonist activity at human dopamine D4 receptor polymorphic variant 4 expressed in Xenopus laevis oocytes at 1 uM incubated for 2 mins; type: cell-based; conditions: filed as antagonist
Mus musculus [8] = test: Analgesic activity in po dosed phenylquinone induced mouse assessed as assessed as reduction in phenylquinone induced writhing; type: functional
DNA gyrase [9] = target: T2, DNA gyrase (Escherichia coli, UniProt P0AES4+P0AES6); test: Inhibition of Escherichia coli DNA gyrase supercoiling activity using pBR322 DNA as substrate incubated for 2 hrs by ethidium bromide/bromophenol blue staining based agarose gel electrophoresis analysis; type: protein-complex assay
DNA gyrase [10] = target: T2, DNA gyrase; test: Inhibition of Escherichia coli DNA gyrase assessed as inhibition of relaxation of supercoiled plasmid pBR322 DNA incubated for 2 hrs by ethidium bromide/bromophenol blue staining based agarose gel electrophoresis analysis; type: protein-complex assay
DNA topoisomerase 2 = DNA topoisomerase 2 (Drosophila melanogaster, UniProt P15348); test: Inhibition of Drosophila topoisomerase II assessed as relaxation of supercoiled plasmid pBR322 DNA incubated for 30 mins by ethidium bromide staining based agarose gel electrophoresis
Chain of DNA topoisomerase 2 (P15348 whole entry): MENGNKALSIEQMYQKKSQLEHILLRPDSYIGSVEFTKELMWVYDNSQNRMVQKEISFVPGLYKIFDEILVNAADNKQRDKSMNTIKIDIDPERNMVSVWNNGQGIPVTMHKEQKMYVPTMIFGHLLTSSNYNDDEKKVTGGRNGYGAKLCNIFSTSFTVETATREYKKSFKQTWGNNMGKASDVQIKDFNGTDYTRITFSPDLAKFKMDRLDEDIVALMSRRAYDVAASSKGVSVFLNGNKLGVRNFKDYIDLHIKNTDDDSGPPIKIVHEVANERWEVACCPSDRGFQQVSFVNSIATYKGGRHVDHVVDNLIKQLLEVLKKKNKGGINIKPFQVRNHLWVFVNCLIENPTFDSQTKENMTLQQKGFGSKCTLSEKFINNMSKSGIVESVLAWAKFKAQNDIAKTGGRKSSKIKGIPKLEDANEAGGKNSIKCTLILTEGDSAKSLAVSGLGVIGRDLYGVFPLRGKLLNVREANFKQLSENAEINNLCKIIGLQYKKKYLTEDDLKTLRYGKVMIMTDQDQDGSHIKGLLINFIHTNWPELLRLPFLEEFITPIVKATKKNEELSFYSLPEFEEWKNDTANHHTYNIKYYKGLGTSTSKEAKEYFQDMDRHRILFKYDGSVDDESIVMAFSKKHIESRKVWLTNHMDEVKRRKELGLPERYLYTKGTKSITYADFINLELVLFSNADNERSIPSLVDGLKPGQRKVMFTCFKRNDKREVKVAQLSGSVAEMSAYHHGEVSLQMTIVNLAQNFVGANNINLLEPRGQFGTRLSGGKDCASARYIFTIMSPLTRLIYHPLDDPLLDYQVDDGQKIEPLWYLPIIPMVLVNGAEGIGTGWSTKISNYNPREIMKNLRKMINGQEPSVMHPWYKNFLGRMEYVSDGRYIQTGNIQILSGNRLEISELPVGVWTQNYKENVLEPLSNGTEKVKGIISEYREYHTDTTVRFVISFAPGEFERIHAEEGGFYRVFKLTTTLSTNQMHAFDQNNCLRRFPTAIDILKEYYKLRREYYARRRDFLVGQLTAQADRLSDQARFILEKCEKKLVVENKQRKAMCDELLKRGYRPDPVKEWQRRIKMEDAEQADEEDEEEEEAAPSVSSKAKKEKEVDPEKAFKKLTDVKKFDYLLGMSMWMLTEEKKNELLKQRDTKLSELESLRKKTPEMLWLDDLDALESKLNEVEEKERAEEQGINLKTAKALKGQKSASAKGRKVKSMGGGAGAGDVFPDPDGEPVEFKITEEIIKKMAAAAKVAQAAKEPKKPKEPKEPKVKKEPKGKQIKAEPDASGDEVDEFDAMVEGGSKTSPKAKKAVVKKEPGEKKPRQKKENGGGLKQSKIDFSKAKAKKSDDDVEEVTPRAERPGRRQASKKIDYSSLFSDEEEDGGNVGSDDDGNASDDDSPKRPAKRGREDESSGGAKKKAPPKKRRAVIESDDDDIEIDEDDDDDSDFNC

Mus musculus [11] = organism: Mus musculus; test: Analgesic activity in acetic acid induced mouse assessed as assessed as reduction in acetic acid induced writhing […]; type: functional, organism-based
[12] = target: Glutamate NMDA receptor (Rattus norvegicus) (UniProt P35439+Q00959+Q00960+Q00961+Q62645+Q8VHN2+Q9R1M7); test: Displacement of 3H-(+)-MK 801 from NMDA receptor in rat brain incubated for 80 mins by liquid scintillation counting method; type: tissue-based; conditions: filed as antagonist
[13] = target: Beta-1 adrenergic receptor (Rattus norvegicus) (UniProt P18090); test: Antagonist activity against beta1 adrenoceptor in Sprague-Dawley rat incubated for 5 mins; conditions: filed as antagonist
Chain of Beta-1 adrenergic receptor (Rattus norvegicus) (P18090 whole entry, looked up): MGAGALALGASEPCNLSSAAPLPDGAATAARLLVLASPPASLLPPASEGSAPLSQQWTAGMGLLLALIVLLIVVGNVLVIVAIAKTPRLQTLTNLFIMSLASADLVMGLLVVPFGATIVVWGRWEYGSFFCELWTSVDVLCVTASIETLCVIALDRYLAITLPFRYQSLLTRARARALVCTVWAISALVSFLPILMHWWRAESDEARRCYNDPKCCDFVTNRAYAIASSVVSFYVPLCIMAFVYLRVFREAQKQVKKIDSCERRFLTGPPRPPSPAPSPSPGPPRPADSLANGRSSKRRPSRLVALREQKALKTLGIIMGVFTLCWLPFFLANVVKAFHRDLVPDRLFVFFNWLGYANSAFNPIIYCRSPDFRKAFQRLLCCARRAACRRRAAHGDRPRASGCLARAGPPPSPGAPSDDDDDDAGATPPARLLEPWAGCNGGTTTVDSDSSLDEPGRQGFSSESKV

Rattus norvegicus [14] = organism: Rattus norvegicus; test: Antiallergic activity in Wistar rat abdominal cavity assessed as inhibition of C48/80-induced histamine release at 0.0005 M incubated for 30 mins by OPT-fluorophore based spectrofluorometric analysis; type: functional; conditions: 0.5 h
Rattus norvegicus [15] = test: Anti-ulcerative activity in aspirin induced Sprague-Dawley rat ulcer model assessed as inhibition of ulcer index at 20 mg/kg,po; type: functional
Homo sapiens = organism: Homo sapiens; test: Selectivity index, ratio of IC50 for […] (unknown origin)
Acetylcholinesterase [16] = target: T1, Acetylcholinesterase; test: Inhibition of AChE (unknown origin) using acetylthiocholine iodide as substrate incubated for 10 mins by DTNB reagent based Ellman's method
[17] = Antioxidant activity assessed as DPPH radical scavenging activity by HPLC analysis; type: functional
[18] = Antioxidant activity assessed as hydroxy radical scavenging activity by HPLC analysis; type: functional
[19] = Antioxidant activity assessed as Ferric ion reducing activity by FRAP assay based HPLC analysis; type: functional
D(4) dopamine receptor = D(4) dopamine receptor (Homo sapiens, UniProt P21917); test: Displacement of spiperone from human dopamine D4 receptor expressed in CHO cell membrane incubated for 1 hr by competitive radioligand binding assay based; type: cell membranes
Chain of D(4) dopamine receptor (P21917 whole entry): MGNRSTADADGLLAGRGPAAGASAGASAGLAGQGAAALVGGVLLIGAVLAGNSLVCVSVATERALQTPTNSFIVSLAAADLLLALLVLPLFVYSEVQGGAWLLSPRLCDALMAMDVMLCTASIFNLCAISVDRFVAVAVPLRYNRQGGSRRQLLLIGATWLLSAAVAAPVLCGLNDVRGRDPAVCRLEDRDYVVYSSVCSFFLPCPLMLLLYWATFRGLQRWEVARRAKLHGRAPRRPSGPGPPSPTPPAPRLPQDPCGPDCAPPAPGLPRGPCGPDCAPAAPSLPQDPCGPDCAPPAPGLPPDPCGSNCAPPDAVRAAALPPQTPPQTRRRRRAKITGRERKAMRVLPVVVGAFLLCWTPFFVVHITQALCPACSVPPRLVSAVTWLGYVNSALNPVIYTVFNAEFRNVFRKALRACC

[20] = target: 5-hydroxytryptamine receptor 1B (Homo sapiens, UniProt P28222); test: Displacement of [3H]serotonin from recombinant human 5-HT1B receptor expressed in HEK293 cells incubated for 1 hr by competitive radioligand binding assay based; type: cell-based
Chain of 5-hydroxytryptamine receptor 1B (P28222 whole entry): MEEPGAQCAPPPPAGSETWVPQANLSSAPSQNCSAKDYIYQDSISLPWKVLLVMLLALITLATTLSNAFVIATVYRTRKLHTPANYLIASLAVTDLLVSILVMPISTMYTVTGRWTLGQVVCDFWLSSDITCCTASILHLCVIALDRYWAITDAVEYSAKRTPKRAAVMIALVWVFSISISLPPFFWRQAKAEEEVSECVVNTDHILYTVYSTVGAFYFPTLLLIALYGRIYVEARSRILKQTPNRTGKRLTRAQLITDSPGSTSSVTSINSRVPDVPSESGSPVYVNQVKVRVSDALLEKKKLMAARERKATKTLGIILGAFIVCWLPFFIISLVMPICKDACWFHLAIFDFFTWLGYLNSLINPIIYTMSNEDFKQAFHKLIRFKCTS

[21] = target: Sigma intracellular receptor 2 (Rattus norvegicus, UniProt Q5U3Y7); test: Displacement of [3H]DTG from sigma 2 receptor in Sprague-Dawley rat liver membranes measured after 120 mins by liquid scintillation counting method; type: cell membranes, Membrane
Chain of Sigma intracellular receptor 2 (Q5U3Y7 whole entry): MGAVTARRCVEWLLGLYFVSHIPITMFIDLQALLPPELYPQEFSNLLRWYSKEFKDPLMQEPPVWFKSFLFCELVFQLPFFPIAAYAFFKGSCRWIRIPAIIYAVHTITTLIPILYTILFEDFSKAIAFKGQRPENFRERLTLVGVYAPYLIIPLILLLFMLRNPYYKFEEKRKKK

[22] = Selectivity index, ratio of Ki for displacement of [3H]-(+)-pentazocine from sigma1 receptor in guinea pig brain membrane to Ki for displacement of [3H]DTG from sigma 2 receptor in Sprague-Dawley rat liver membranes; type: cell membranes
[23] = target: Sigma non-opioid intracellular receptor 1 (Cavia porcellus, UniProt Q60492); test: Displacement of [3H](+)-pentazocine from sigma 1 receptor in guinea pig brain membranes measured after 150 mins by liquid scintillation counting method; type: cell membranes, Membrane
Chain of Sigma non-opioid intracellular receptor 1 (Q60492 whole entry): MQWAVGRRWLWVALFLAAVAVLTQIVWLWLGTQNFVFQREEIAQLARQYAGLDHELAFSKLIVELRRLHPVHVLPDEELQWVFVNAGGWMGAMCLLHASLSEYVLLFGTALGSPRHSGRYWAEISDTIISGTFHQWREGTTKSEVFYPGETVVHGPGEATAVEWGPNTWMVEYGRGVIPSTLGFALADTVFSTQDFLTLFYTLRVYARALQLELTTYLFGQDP

CCOC1OC(C)Cc2c(C)c(O)cc(OC)c21 (stereo unspecified)
inhibition at 100 µg/mL (Lasiodiplodia theobromae): 74%

CN/C(=N\CCSCc1nc[nH]c1C)NC#N [CIMETIDINE]
inhibition in vivo at 20 mg/kg (Rattus norvegicus [1]): 51.6%

CC1=Cc2c(C=O)c(O)c(C)c(O)c2CO1
inhibition (Acetylcholinesterase [2]): -2%

COC1(C)Cc2c(C=O)c(O)c(Cc3c(O)c(C=O)c4c(c3O)COC(C)(OC)C4)c(O)c2CO1 (stereo unspecified)
inhibition (Acetylcholinesterase [2]): 53%

Clc1ccc2oc(SCC3OCCc4ccccc43)nc2c1 (stereo unspecified)
IC50 (KB): 6.1 µg/mL (≈ 18.4 µM)

Cc1c(O)cc(O)c2c1[C@H](C)[C@@H](C)O[C@@H]2c1ccc(O)cc1
IC50 (HL-60): 22.7 µg/mL (≈ 75.6 µM)

COc1cc(O)c(C)c2c1[C@@H](OC)O[C@@H](C)C2
inhibition at 100 µg/mL (Lasiodiplodia theobromae): 76%

C[C@H]1Cc2cc3c(cc2[C@H](c2ccc(N)cc2)O1)OCO3
inhibition at 100 µM (NCI-H460): 67%

NC[C@@H]1O[C@H](C23CC4CC(CC(C4)C2)C3)Cc2c1ccc(O)c2O
Ki [3]: 1.86 µM
Ki (D(1A) dopamine receptor): 0.0039 µM

COC(=O)Cc1cc2c(cc1C(=O)c1ccc(N)cc1)OCO2
inhibition at 100 µM (NCI-H460): 4%

COc1cc(O)cc2c1CO[C@@H](C)C2
inhibition at 10 µg/mL (L5178Y): 16.1%

COc1cccc(Nc2nnc(C3(C)OCCc4cc(OC)c(OC)c(OC)c43)s2)c1 (stereo unspecified)
MIC (Pseudomonas aeruginosa): 6.25 µg/mL (≈ 14.1 µM)
MIC [4]: 6.25 µg/mL (≈ 14.1 µM)
MIC (Aspergillus flavus): 6.25 µg/mL (≈ 14.1 µM)
MIC (Aspergillus fumigatus): 6.25 µg/mL (≈ 14.1 µM)
MIC (Escherichia coli): 6.25 µg/mL (≈ 14.1 µM)
MIC (Klebsiella pneumoniae): 6.25 µg/mL (≈ 14.1 µM)
MIC (Staphylococcus aureus): 6.25 µg/mL (≈ 14.1 µM)
MIC (Talaromyces marneffei): 6.25 µg/mL (≈ 14.1 µM)

COc1ccc(N2CCN(CC[C@@H]3O[C@@H](C)Cc4cc(OC)c(OC)cc43)CC2)cc1
inhibition (Oocyte [5]): 33%
inhibition (Oocyte [6]): 66%
inhibition (Oocyte [7]): 46%

CN1CCC2(CC1)COCc1ccccc12
ED50 (Mus musculus [8]): 12 mg/kg

COc1cc(O)c(C)c2c1[C@H](O)O[C@@H](C)C2
inhibition at 10 µg/mL (L5178Y): 40.4%

CC(C)NC(C)CC1OCCc2ccccc21 (stereo unspecified)
inhibition in vivo at 20 mg/kg (Rattus norvegicus [1]): 61%

CCCCCCC[C@H]1Cc2cc(O)c(C(=O)O)c(O)c2[C@@H](O)O1
IC50 (DNA gyrase [9]): 18.5 µM
IC50 (DNA gyrase [10]): 27.7 µM
IC50 (DNA topoisomerase 2): 3.08 µM

COc1cc2c(cc1OC)C1CN(C)CC(C2)O1 (stereo unspecified)
EC50 (Mus musculus [11]): 77 mg/kg
Activity [12]: 95%

COc1cc(O)c(C)c2c1C(=O)O[C@@H](C)C2
inhibition at 10 µg/mL (L5178Y): 59.5%

COc1cc2c(c(OC)c1OC)C(C)(c1n[nH]c(=S)n1-c1ccc(C)cc1)OCC2 (stereo unspecified)
MIC (Pseudomonas aeruginosa): 6.25 µg/mL (≈ 14.6 µM)
MIC (Escherichia coli): 6.25 µg/mL (≈ 14.6 µM)
MIC (Klebsiella pneumoniae): 6.25 µg/mL (≈ 14.6 µM)
MIC (Staphylococcus aureus): 6.25 µg/mL (≈ 14.6 µM)

COc1cc2c(cc1OC)C1CNCC(C2)O1 (stereo unspecified)
Activity [12]: 93%

COC1(C)Cc2c(C=O)c(O)c(Cc3c(O)c(C=O)c4c(c3O)COC(C)=C4)c(O)c2CO1 (stereo unspecified)
inhibition (Acetylcholinesterase [2]): 55%

COc1cc(O)c(C)c2c1CO[C@@H](C)C2
inhibition at 10 µg/mL (L5178Y): 3.4%

CCCNCC(O)CC/N=C1\COCc2c1ccc(OC)c2OC (stereo unspecified)
inhibition [13]: 62.9%

COc1cc(O)c(C)c2c1CO[C@@H](C)[C@@H]2O
inhibition at 10 µg/mL (L5178Y): 26.2%

O=C1OCC2(CCN(CCc3ccccc3)CC2)c2ccccc21
ED50 (Mus musculus [8]): 60 mg/kg
inhibition in vivo at 500 µM (Rattus norvegicus [14]): 94%

CC(CC1CCCc2ccccc21)NCC(C)c1ccccc1 (stereo unspecified)
inhibition in vivo at 20 mg/kg (Rattus norvegicus [15]): 3.2%
inhibition in vivo at 20 mg/kg (Rattus norvegicus [1]): 71.3%

COc1cc(O)cc2c1C(=O)O[C@@H](C)C2
inhibition at 10 µg/mL (L5178Y): 13.7%

COC1=CC(=O)C(C)=C2C[C@H](C)OC=C12
inhibition at 100 µg/mL (Lasiodiplodia theobromae): 69%

COc1cc2c(cc1OC)C(=O)/C(=C/c1cc[n+](Cc3ccc(F)cc3)cc1)OC2
Ratio IC50 (Homo sapiens): > 5000
IC50 (Acetylcholinesterase [16]): 0.00015 µM

Oc1ccc2c(c1)OCC21Cc2cc(O)c(O)cc2C(O)O1 (stereo unspecified)
IC50 [17]: 33.3 µM
IC50 [18]: 33.3 µM
IC50 [19]: 78.2 µM

O=C1OCC2(CCN(Cc3ccccc3)CC2)c2ccccc21
ED50 (Mus musculus [8]): 100 mg/kg
inhibition in vivo at 500 µM (Rattus norvegicus [14]): 31%

COC1(C)Cc2c(C=O)c(O)c(C)c(O)c2CO1 (stereo unspecified)
inhibition (Acetylcholinesterase [2]): -1%

CNC(=O)c1ccc2c(c1)CCO[C@H]2CCN1CCN(c2ccc(OC)cc2)CC1
Ki (D(4) dopamine receptor): 3.7 µM
Ki [20]: 5.78 µM

c1ccc(CCN2CCC3(CC2)COCc2ccccc23)cc1
ED50 (Mus musculus [8]): 54 mg/kg
inhibition in vivo at 500 µM (Rattus norvegicus [14]): 96%

CC12Cc3cc4c(cc3C(c3ccc(N)cc3)(OCO1)O2)OCO4 (stereo unspecified)
inhibition at 100 µM (NCI-H460): 86%

CC(CC1OCCc2ccccc21)NCCc1ccccc1 (stereo unspecified)
inhibition in vivo at 20 mg/kg (Rattus norvegicus [1]): 71.3%

N#CC1Cc2ccccc2C2(CCN(Cc3ccccc3)CC2)O1 (stereo unspecified)
Ki [21]: 1.59 µM

CC1=Cc2c(C=O)c(O)c(Cc3c(O)c(C=O)c4c(c3O)COC(C)=C4)c(O)c2CO1
inhibition (Acetylcholinesterase [2]): 46%

COC(=O)[C@]1(C)Cc2cc(OC)c(OC)cc2C2(CCN(C)CC2)O1.Cl
EC50 (Mus musculus [11]): 44 mg/kg

COC1Cc2ccccc2C2(CCN(CCc3ccccc3)CC2)O1 (stereo unspecified)
Ratio Ki [22]: 148
Ki [23]: 0.00207 µM
